Data on 3 compounds can be found in patent EP4005565A1 (priority 2020, dated 2022).

Data set [1] concerns SARS-CoV-2 (viral strain INMI1). In words: Antiviral activity assay with nucleoprotein readout (ELISA) in infected Vero E6 cells. Particulars: Severe acute respiratory syndrome coronavirus 2, Vero C1008, 72 h, read-out: IC50, SARS-CoV-2 replication (virus nucleoprotein in % of infected untreated control). It counts as cell-based. As for the experimental part: The cell line is routinely maintained in DMEM supplemented with 1% glutamine, 1% penicillin/streptomycin and 10% fetal bovine serum and can be infected with SARS-CoV-2 (Ogando et al., 2020).
Exponentially growing Vero E6 cells were seeded into a 96-well plate at their optimal density in complete medium. […] Drug dilutions were performed in culture medium. Replicates for each concentration point were examined. At the end of the incubation period, antiviral activity was examined through both ELISA (Sino Biological, quantifying SARS-CoV-2 nucleoprotein) as well as a cytoprotection assay (toxicity effect examined through an inverted microscope). An inhibitory concentration 50% (IC50) value was calculated through interpolation of the dose-response curves generated.
The nucleoprotein was quantified by ELISA. Results are means ± SD of 2-4 experiments.

For data set [2] the following is noted: cited from earlier work.
The subject of data set [3] is lysosomal uptake. Particulars: at 10µM (Smieszek et al., 2020); cited from earlier work.
In data set [4] the target is binding of the viral spike protein to ACE2 (UniProt P0DTC2+Q9BYF1). Particulars: Fink et al. in prep; cited from earlier work.
Chain of binding of the viral spike protein to ACE2 (Q9BYF1 18-805, one chain of several): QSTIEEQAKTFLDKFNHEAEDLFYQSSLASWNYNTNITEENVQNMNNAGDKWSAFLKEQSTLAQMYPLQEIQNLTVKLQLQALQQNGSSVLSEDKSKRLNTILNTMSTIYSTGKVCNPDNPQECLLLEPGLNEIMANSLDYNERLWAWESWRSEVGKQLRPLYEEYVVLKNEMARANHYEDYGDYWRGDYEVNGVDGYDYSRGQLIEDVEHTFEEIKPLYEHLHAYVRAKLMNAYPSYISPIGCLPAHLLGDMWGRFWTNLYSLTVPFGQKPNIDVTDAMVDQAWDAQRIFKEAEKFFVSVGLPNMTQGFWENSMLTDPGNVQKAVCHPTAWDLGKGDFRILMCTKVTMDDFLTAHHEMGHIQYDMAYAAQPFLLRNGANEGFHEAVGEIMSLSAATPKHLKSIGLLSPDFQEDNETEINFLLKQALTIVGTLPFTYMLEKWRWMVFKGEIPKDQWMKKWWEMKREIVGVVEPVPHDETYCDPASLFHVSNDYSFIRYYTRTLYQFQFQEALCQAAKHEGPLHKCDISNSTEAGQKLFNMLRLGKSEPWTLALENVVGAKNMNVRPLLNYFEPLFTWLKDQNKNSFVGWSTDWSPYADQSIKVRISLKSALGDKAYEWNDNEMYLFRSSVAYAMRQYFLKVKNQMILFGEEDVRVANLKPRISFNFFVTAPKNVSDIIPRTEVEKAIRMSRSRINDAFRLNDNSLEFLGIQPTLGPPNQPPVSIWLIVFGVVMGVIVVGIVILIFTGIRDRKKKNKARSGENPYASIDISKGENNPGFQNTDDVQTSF
Data set [5] deals with influenza A. Particulars: inhalation, cited from earlier work.
Data set [6] relates to influenza A. Particulars: inhaled at 6mg/kg/d (Fenton et al., 1977); cited from earlier work.
The test system of data set [7] is influenza A. Particulars: 20 influenza A patients; inhalative 1%, 20mg/d, 3x20min, 4d (Hayden et al., 1980); cited from earlier work.
The conditions of data set [8]: cited from earlier work. This is another data set of the same source.
For data set [9] the following is noted: 7 volunteers and 3 influenza patients; 1.5%, up to 9h, 2x6h, 10-11h in 3d (Knight et al., 1979); cited from earlier work.
The subject of data set [10] is SARS-CoV-2. Description: Treatment of a SARS-CoV-2 positive patient with nebulized amantadine hemisulfate (Example 2). Type of data set: in vivo. Particulars: 0.4mg/ml inhaled every 2 h for 30min 6 times per day, 7 days. The text has this: A patient who had contact 2 days ago with a colleague who turned out to be SARS-CoV-2 positive the day after the meeting, consults their primary care physician. […] The RT-PCR test for SARS-CoV-2 of a nasal swab is also positive; HR is 78/min, BP is 120/80mmHg, BR is 15/min, peripheral O2 saturation is 97%, no further health issues are diagnosed. The patient is diagnosed with Covid-19 and isolated in home quarantine with daily doctor calls to evaluate their health status. […] The treatment is continued for 7 days. […] They recover within 14 days after treatment start.

Counter-ions that a name gives are not always drawn. Like-named read-outs stand apart in the source and are kept apart here. A value given as a limit tells only on which side of the number the result lay.

On to `NC12CC3CC(CC(C3)C1)C2` [amantadine hydrochloride], for which, in [1], the IC50 came to 88 µM.

Turning to `NC12CC3CC(CC(C3)C1)C2` [amantadine, 1-Adamantylamine], the “plasma concentration after inhalative administration” value in [2] (healthy human volunteers, inhalation (Hayden et al., 1979)) was 0.13 µM. In data set [2] (patients receiving regularly 600 mg orally per day (Brenner et al., 1989)), the plasma concentrations result is given as “up to 14.6 µM”. In addition, the reduced lysosomal uptake in data set [3] is reported as 50%. For the same compound, the “Interference with the binding of the viral spike protein to ACE2 on target cells” value in data set [4] was “can be ruled out”. The virus load result in data set [5] (40 mg/d retained dose (Wilson et al., 1980)) is listed as “reduced virus load”. The effect on survival entry in [5] (22h/day, 4mg/d retained dose (Walker et al., 1976)) is “positive effect on survival”. The virus load result in data set [6] is given as “reduced virus load”. Moreover, in data set [7], the symptoms result is “improved symptoms” and the virus load entry was “reduced virus load”. Further, in [8] (human, in vivo), the “serum concentrations in intoxication case” value was 15.9 µM. In data set [8] (patients, plasma), the “plasma concentration at which aggressive behaviour was observed” value was 5.5 to 6.6 µM; the “plasma concentration at which depression and confusion were observed” value is given as 19.9 µM; the “plasma concentration at which seizures were observed” value is 13.2 µM. For the same compound, the “safety of inhalative administration” value in data set [9] is “safe and irritation-free”.

For amantadine hemisulfate, in [10], the “breathing problems during treatment” value was “does not suffer from breathing problems”, the fever during treatment result is on record as “transiently minor fever” and the “time to recovery after treatment start” value is on record as not above 14 days.
